What was measured:
[1] = Encapsulation efficiency of lipid nanoparticles (Quant-it Ribogreen RNA assay); format: physicochemical; settings: LNP comprising the compound, hEPO mRNA
Method: (§1) Briefly, a cationic lipid provided herein, DSPC, cholesterol, and PEG-lipid were solubilized in ethanol at a molar ratio of 50:10:38.5:1.5, and mRNA were diluted in 10 to 50 mM citrate buffer, pH=4. The LNPs were prepared at a total lipid to mRNA weight ratio of approximately 10:1 to 30:1 by mixing the ethanolic lipid solution with the aqueous mRNA solution at a volume ratio of 1:3 using a microfluidic apparatus, total flow rate ranging from 9-30 mL/min. Ethanol were thereby removed and replaced by DPBS using dialysis. Finally, the lipid nanoparticles were filtered through a 0.2 μm sterile filter.
(§2) Lipid nanoparticle size were determined by dynamic light scattering using a Malvern Zetasizer Nano ZS (Malvern UK) using a 173° backscatter detection mode. The encapsulation efficiency of lipid nanoparticles were determined using a Quant-it Ribogreen RNA quantification assay kit (Thermo Fisher Scientific, UK) according to the manufacturer's instructions.

[2] = test system: human erythropoietin (hEPO) mRNA expression; assay: Animal Study 1: hEPO mRNA LNPs i.v. in mice, serum EPO by ELISA; format: in vivo; settings: female ICR mice, 0.5 mg/kg tail vein injection, blood e.g. 6 hours post administration; relative to MC3 LNP
Method: Lipid nanoparticles comprising compounds in the following table encapsulating human erythropoietin (hEPO) mRNA were systemically administered to 6-8 week old female ICR mice (Xipuer-Bikai, Shanghai) at 0.5 mg/kg dose by tail vein injection and mice blood were sampled at specific time points (e.g., 6 hours) post administration. In addition to the aforementioned tested groups, lipid nanoparticles comprising dilinoleylmethyl-4-dimethylaminobutyrate (DLin-MC3-DMA, usually abbreviated to MC3) encapsulating hEPO mRNA were similarly administered at the same dose to age and gender comparative groups of mice as a positive control.
Mice were euthanized by CO2 overdoses after the last sampling time point. Serum were separated from total blood by centrifugation at 5000 g for 10 minutes at 4 T, snap-frozen and stored at −80 T for analysis. ELISA assay were carried out using a commercial kit (DEP00, R&D systems) according to manufacturer's instructions.
Characteristics of tested lipid nanoparticles, including EPO expression levels over MC3 measured from the tested group are listed in the table below.

[3] = Lipid nanoparticle size and polydispersity by dynamic light scattering; format: physicochemical; settings: LNP comprising the compound, hEPO mRNA; for Size (nm): cationic lipid/DSPC/cholesterol/PEG-lipid 50:10:38.5:1.5
Method: as §1, §2

[4] = Apparent pKa of LNP formulations (TNS fluorescence assay); format: physicochemical; settings: LNP formulation, TNS assay (Table 2)
Method: As reported in literature, the apparent pKa of LNP formulations correlates with the delivery efficiency of LNPs for nucleic acids in vivo. The apparent pKa of each formulation was determined using an assay based on fluorescence of 2-(p-toluidino)-6-napthalene sulfonic acid (TNS). LNP formulations comprising of cationic lipid/DSPC/cholesterol/DMG-PEG (50/10/38.5/1.5 mol %) in PBS were prepared as described above. TNS was prepared as a 300 μM stock solution in distilled water. LNP formulations were diluted to 0.1 mg/mL total lipid in 3 mL of buffered solutions containing 50 mM sodium citrate, 50 mM sodium phosphate, 50 mM sodium borate, and 30 mM sodium chloride where the pH ranged from 3 to 9. An aliquot of the TNS solution was added to give a final concentration of […] and following vortex mixing fluorescence intensity was measured at room temperature in a Molecular Devices Spectramax iD3 spectrometer using excitation and mission wavelengths of 325 nm and 435 nm. A sigmoidal best fit analysis was applied to the fluorescence data and the pKa value was measured as the pH giving rise to half-maximal fluorescent intensity.

Row | Structure (SMILES) | Encapsulation efficiency [1] | EPO expression over MC3 [2] | Polydispersity [3] | Size (nm) [3] | Apparent pKa [4]
1 | CCCCCCCCC(CCCCCC)CNC(=O)CCCCCN(CCO)CCCCC(COC(=O)C(CCCCCC)CCCCCCCC)COC(=O)C(CCCCCC)CCCCCCCC (centres unmarked) [Compound 26] | 85.33% | C (≥0.1 and <1) | 0.01 | 55.11 nm | 6.332
2 | CCCCCCCC(=O)OCC(CCCCN(CCCCC(COC(=O)CCCCCCC)COC(=O)CCCCCCC)CCCNc1c(N(C)C)c(=O)c1=O)COC(=O)CCCCCCC [Compound 27] | 91.59% | A (≥2) | 0.073 | 64.02 nm | 6.404
3 | CCCCCCCC(=O)OCC(CCCCN(CCCCCNc1c(N(C)C)c(=O)c1=O)CCCCC(COC(=O)CCCCCCC)COC(=O)CCCCCCC)COC(=O)CCCCCCC [Compound 28] | 89.90% | C (≥0.1 and <1) | 0.077 | 68.48 nm | 6.593
4 | CCCCCCCC(=O)OCC(CCCCCCN(CCCCCO)CCCCCCC(COC(=O)CCCCCCC)COC(=O)CCCCCCC)COC(=O)CCCCCCC [Compound 29] | 86.98% | A (≥2) | 0.031 | 80.75 nm | 6.513
5 | CCCCCCCC(=O)OCC(CCCCN(CCCCC(COC(=O)CCCCCCC)COC(=O)CCCCCCC)CCCNc1c(N(CC)CC)c(=O)c1=O)COC(=O)CCCCCCC [Compound 31] | 88.17% | A (≥2) | 0.073 | 72.36 nm | 6.221
6 | CCCCCCCC(=O)OCC(CCCCN(CCCCC(COC(=O)CCCCCCC)COC(=O)CCCCCCC)CCCNc1c(N(C)CC)c(=O)c1=O)COC(=O)CCCCCCC [Compound 34] | 89.70% | A (≥2) | 0.04761 | 67.6 nm | 6.34
7 | CCCCCCCC(=O)OCC(CCCCN(CCCCC(COC(=O)CCCCCCC)COC(=O)CCCCCCC)CCCNc1c(N(C)CCC)c(=O)c1=O)COC(=O)CCCCCCC [Compound 35] | 89.19% | A (≥2) | 0.05652 | 71.02 nm | 6.138
8 | CCCCCCCCCCCCCCCCCC(=O)OCCCCCCN(CCCCC(COC(=O)CCCCCCC)COC(=O)CCCCCCC)C1CCC(O)CC1 (centres unmarked) [Compound 36] | 85.90% | C (≥0.1 and <1) | 0.1156 | 78.92 nm | 6.867
9 | CCCCC/C=C\C/C=C\CCCCCCCC(=O)OCCCCCCN(CCCCC(COC(=O)CCCCCCC)COC(=O)CCCCCCC)C1CCC(O)CC1 (centres unmarked) [Compound 37] | 88.34% | A (≥2) | 0.005279 | 93.13 nm | 6.69
10 | CCCCCCCC/C=C\CCCCCCCC(=O)OCCCCCCN(CCCCC(COC(=O)CCCCCCC)COC(=O)CCCCCCC)C1CCC(O)CC1 (centres unmarked) [Compound 38] | 87.69% | B (≥1 and <2) | 0.06385 | 100.3 nm | 6.799
11 | CCCCCCCC/C=C\CCCCCCCC(=O)OCCCCCCN(CCCCC(COC(=O)CCCCCCC)COC(=O)CCCCCCC)C1CC(O)C1 (centres unmarked) [Compound 39] | 89.27% | C (≥0.1 and <1) | 0.002 | 84.01 nm | 6.801
12 | CCCCC/C=C\C/C=C\CCCCCCCC(=O)OCCCCCCN(CCCCC(COC(=O)CCCCCCC)COC(=O)CCCCCCC)CCCNc1c(N(C)C)c(=O)c1=O [Compound 42] | 95.23% | C (≥0.1 and <1) | 0.0478 | 77.38 nm | 6.657
13 | CCCCCCCC(=O)OCC(CCCCN(CCCCC(COC(=O)CCCCCCC)COC(=O)CCCCCCC)[C@H]1C[C@@H](O)C1)COC(=O)CCCCCCC [Compound 43] | 89.21% | A (≥2) | 0.057 | 64.77 nm | 6.653
14 | CCCCCCCC(=O)OCC(CCCCN(CCCCC(COC(=O)CCCCCCC)COC(=O)CCCCCCC)[C@@H]1CC[C@H](O)C1)COC(=O)CCCCCCC [Compound 47] | 89.99% | A (≥2) | 0.039 | 91.46 nm | 6.767
15 | CCCCCCCC(=O)OCC(CCCCN(CCCCC(COC(=O)CCCCCCC)COC(=O)CCCCCCC)[C@H]1C=C[C@@H](CO)C1)COC(=O)CCCCCCC [Compound 48] | 84.12% | A (≥2) | 0.027 | 92.53 nm | 6.143
16 | CCCCCCCC(=O)OCC(CCCCN(CCCCC(COC(=O)CCCCCCC)COC(=O)CCCCCCC)C1CC(CO)C1)COC(=O)CCCCCCC (centres unmarked) [Compound 54] | 94.90% | B (≥1 and <2) | 0.109 | 63.7 nm | 6.679
17 | CCCCCCCC(=O)OCC(CCCCN(CCCCC(COC(=O)CCCCCCC)COC(=O)CCCCCCC)[C@H]1CC[C@H](CO)CC1)COC(=O)CCCCCCC [Compound 59] | 72.86% | A (≥2) | 0.066 | 168.4 nm | 6.633
18 | CCCCCCCC(=O)OCC(CCCCN(CCCCC(COC(=O)CCCCCCC)COC(=O)CCCCCCC)C1CC(CO)(CO)C1)COC(=O)CCCCCCC [Compound 61] | 91.26% | C (≥0.1 and <1) | 0.066 | 72.95 nm | 7.32
19 | CCCCCCCCC(CCCCCC)CNC(=O)CCCCCN(CCCCC(COC(=O)CCCCCCC)COC(=O)CCCCCCC)CC1(CO)CCCC1 (centres unmarked) [Compound 62] | 88.45% | D (<0.1) | 0.031 | 71.06 nm | 5.299

From patent publication US20240238212A1, “LIPID COMPOUNDS AND LIPID NANOPARTICLE COMPOSITIONS” (SUZHOU ABOGEN BIOSCIENCES CO., LTD., priority 2022, published 2024)
